Laboratory results reported in patent US10604554B2, “Double-acylated GLP-1 derivatives” (Novo Nordisk A/S, priority 2012, dated 2020).

Assays:
human GLP-1 receptor [1] = target: T1, human GLP-1 receptor (Homo sapiens, UniProt P43220); test: In vitro potency (CRE luciferase; whole cells); format: cell-based; parameters: EC50/pM (ratio 1% HSA/0% HSA): unit not given here; details: for EC50: BHK cells; for EC50/pM (ratio 1% HSA/0% HSA): ratio of EC50 at 1% HSA to EC50 at 0% HSA
T1 construct: expressed in transfected cells; host or cells: BHK cells, clone FCW467-12A/KZ10-1 (parent line BHKTS13), further transfected with CRE luciferase
T1 sequence (P43220 24-463): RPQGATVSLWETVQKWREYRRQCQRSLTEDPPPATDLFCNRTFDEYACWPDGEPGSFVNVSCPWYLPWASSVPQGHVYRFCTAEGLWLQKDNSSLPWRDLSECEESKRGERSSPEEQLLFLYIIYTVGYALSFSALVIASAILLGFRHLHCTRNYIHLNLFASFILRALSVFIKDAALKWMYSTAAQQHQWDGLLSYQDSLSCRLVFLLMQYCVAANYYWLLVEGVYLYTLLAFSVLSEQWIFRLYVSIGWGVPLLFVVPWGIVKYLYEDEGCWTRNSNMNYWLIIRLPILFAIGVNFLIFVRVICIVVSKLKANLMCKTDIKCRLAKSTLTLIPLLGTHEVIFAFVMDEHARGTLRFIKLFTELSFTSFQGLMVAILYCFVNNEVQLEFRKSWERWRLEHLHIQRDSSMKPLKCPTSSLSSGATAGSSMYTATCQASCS
Outline: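 Reporter: CRE-luciferase in BHK cells stably expressing human GLP-1R, 5×10^3 cells/well; compounds tested in buffer containing 0% or 1% HSA.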

human GLP-1 receptor [2] = target: T1, human GLP-1 receptor; test: GLP-1 receptor binding (SPA, displacement of 125I-GLP-1)
Outline: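 Tracer [125I]-GLP-1(7-36)NH2 at 0.06 nM final competed on hamster stably transfected cell membranes captured by WGA SPA beads; 120 min, 30 °C, scintillation count.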

[3] = In vitro potency (CRE luciferase) EC50 (0% HSA), 0% HSA
[4] = In vitro potency (CRE luciferase) EC50 (1% HSA), 1% HSA
[5] = Receptor binding affinity IC50 (high HSA), 2.0% HSA (high albumin)
[6] = Receptor binding affinity IC50 (low HSA), 0.001% HSA (low albumin)

Question: CC[C@H](C)[C@H](NC(=O)[C@H](Cc1ccccc1)NC(=O)[C@H](CCC(=O)O)NC(=O)[C@H](CCCCNC(=O)[C@@H](N)CCCCNC(=O)CC[C@H](NC(=O)CC[C@H](NC(=O)CC[C@H](NC(=O)CCCCCCCCCCOc1ccc(C(=O)O)cc1)C(=O)O)C(=O)O)C(=O)O)NC(=O)[C@H](C)NC(=O)[C@H](C)NC(=O)[C@H](CCC(N)=O)NC(=O)CNC(=O)[C@H](CCC(=O)O)NC(=O)[C@H](CC(C)C)NC(=O)[C@H](Cc1ccc(O)cc1)NC(=O)[C@H](CO)NC(=O)[C@H](CO)NC(=O)[C@@H](NC(=O)[C@H](CC(=O)O)NC(=O)[C@H](CO)NC(=O)[C@@H](NC(=O)[C@H](Cc1ccccc1)NC(=O)[C@@H](NC(=O)CNC(=O)[C@H](CCC(=O)O)NC(=O)C(C)(C)NC(=O)[C@@H](N)Cc1c[nH]cn1)[C@@H](C)O)[C@@H](C)O)C(C)C)C(=O)N[C@@H](C)C(=O)N[C@@H](Cc1c[nH]c2ccccc12)C(=O)N[C@@H](CC(C)C)C(=O)N[C@H](C(=O)N[C@@H](CCCNC(=N)N)C(=O)NCC(=O)N[C@@H](CCCNC(=N)N)C(=O)N[C@@H](CCCCNC(=O)[C@@H](N)CCCCNC(=O)CC[C@H](NC(=O)CC[C@H](NC(=O)CC[C@H](NC(=O)CCCCCCCCCCOc1ccc(C(=O)O)cc1)C(=O)O)C(=O)O)C(=O)O)C(=O)O)C(C)C [Example 39, N^ε26-[(2S)-2-amino-6-[[(4S)-4-carboxy-4-[[(4S)-4-carboxy-4-[[(4S)-4-carboxy-4-[11-(4-carboxyphenoxy)undecanoylamino]butanoyl]amino]butanoyl]amino]butanoyl]amino]hexanoyl], N^ε37-[(2S)-2-amino-6-[[(4S)-4-carboxy-4-[[(4S)-4-carboxy-4-[[(4S)-4-carboxy-4-[11-(4-carboxyphenoxy)undecanoylamino]butanoyl]amino]butanoyl]amino]butanoyl]amino]hexanoyl]-[Aib^8,Arg^34,Lys^37]-GLP-1-(7-37)-peptide] was tested. Which EC50 (human GLP-1 receptor [1]; [3]) did it give?
Answer: 0.0037 nM

Question: And the EC50 (human GLP-1 receptor [1]; [4])?
Answer: 0.14 nM

Question: And the “EC50/pM (ratio 1% HSA/0% HSA)” value (human GLP-1 receptor [1])?
Answer: 38

Question: And the IC50 (human GLP-1 receptor [2]; [5])?
Answer: 131 nM

Question: And the IC50 (human GLP-1 receptor [2]; [6])?
Answer: 0.06 nM

Question: How did the EC50 (human GLP-1 receptor [1]; [3]) turn out when CC[C@H](C)[C@H](NC(=O)[C@H](Cc1ccccc1)NC(=O)[C@H](CCC(=O)O)NC(=O)[C@H](CCCCNC(=O)[C@@H](N)CCCCNC(=O)[C@@H](N)CCCCNC(=O)COCCOCCNC(=O)CC[C@H](NC(=O)CCCCCCCCCCOc1ccc(C(=O)O)cc1)C(=O)O)NC(=O)[C@H](C)NC(=O)[C@H](C)NC(=O)[C@H](CCC(N)=O)NC(=O)CNC(=O)[C@H](CCC(=O)O)NC(=O)[C@H](CC(C)C)NC(=O)[C@H](Cc1ccc(O)cc1)NC(=O)[C@H](CO)NC(=O)[C@H](CO)NC(=O)[C@@H](NC(=O)[C@H](CC(=O)O)NC(=O)[C@H](CO)NC(=O)[C@@H](NC(=O)[C@H](Cc1ccccc1)NC(=O)[C@@H](NC(=O)CNC(=O)[C@H](CCC(=O)O)NC(=O)C(C)(C)NC(=O)[C@@H](N)Cc1c[nH]cn1)[C@@H](C)O)[C@@H](C)O)C(C)C)C(=O)N[C@@H](C)C(=O)N[C@@H](Cc1c[nH]c2ccccc12)C(=O)N[C@@H](CC(C)C)C(=O)N[C@H](C(=O)N[C@@H](CCCNC(=N)N)C(=O)NCC(=O)N[C@@H](CCCNC(=N)N)C(=O)N[C@@H](CCCCNC(=O)[C@@H](N)CCCCNC(=O)[C@@H](N)CCCCNC(=O)COCCOCCNC(=O)CC[C@H](NC(=O)CCCCCCCCCCOc1ccc(C(=O)O)cc1)C(=O)O)C(=O)O)C(C)C [Example 34, N^ε26-[(2S)-2-amino-6-[[(2S)-2-amino-6-[[2-[2-[2-[[(4S)-4-carboxy-4-[11-(4-carboxyphenoxy)undecanoylamino]butanoyl]amino]ethoxy]ethoxy]acetyl]amino]hexanoyl]amino]hexanoyl], N^ε37-[(2S)-2-amino-6-[[(2S)-2-amino-6-[[2-[2-[2-[[(4S)-4-carboxy-4-[11-(4-carboxyphenoxy)undecanoylamino]butanoyl]amino]ethoxy]ethoxy]acetyl]amino]hexanoyl]amino]hexanoyl]-[Aib^8,Arg^34,Lys^37]-GLP-1-(7-37)-peptide] was run?
Answer: 0.0079 nM

Question: And the EC50 (human GLP-1 receptor [1]; [4])?
Answer: 0.059 nM

Question: And the “EC50/pM (ratio 1% HSA/0% HSA)” value (human GLP-1 receptor [1])?
Answer: 9.1

Question: And the IC50 (human GLP-1 receptor [2]; [5])?
Answer: 45 nM

Question: And the IC50 (human GLP-1 receptor [2]; [6])?
Answer: 0.12 nM

Question: What does the source list for CC[C@H](C)[C@H](NC(=O)[C@H](Cc1ccccc1)NC(=O)[C@H](CCC(=O)O)NC(=O)[C@H](CCCCNC(=O)[C@@H](N)CCCCNC(=O)CC[C@H](NC(=O)CC[C@H](NC(=O)CC[C@H](NC(=O)CCCCCCCCCOc1ccc(C(=O)O)cc1)C(=O)O)C(=O)O)C(=O)O)NC(=O)[C@H](C)NC(=O)[C@H](C)NC(=O)[C@H](CCC(N)=O)NC(=O)CNC(=O)[C@H](CCC(=O)O)NC(=O)[C@H](CC(C)C)NC(=O)[C@H](Cc1ccc(O)cc1)NC(=O)[C@H](CO)NC(=O)[C@H](CO)NC(=O)[C@@H](NC(=O)[C@H](CC(=O)O)NC(=O)[C@H](CO)NC(=O)[C@@H](NC(=O)[C@H](Cc1ccccc1)NC(=O)[C@@H](NC(=O)CNC(=O)[C@H](CCC(=O)O)NC(=O)C(C)(C)NC(=O)[C@@H](N)Cc1c[nH]cn1)[C@@H](C)O)[C@@H](C)O)C(C)C)C(=O)N[C@@H](C)C(=O)N[C@@H](Cc1c[nH]c2ccccc12)C(=O)N[C@@H](CC(C)C)C(=O)N[C@H](C(=O)N[C@@H](CCCNC(=N)N)C(=O)NCC(=O)N[C@@H](CCCNC(=N)N)C(=O)N[C@@H](CCCCNC(=O)[C@@H](N)CCCCNC(=O)CC[C@H](NC(=O)CC[C@H](NC(=O)CC[C@H](NC(=O)CCCCCCCCCOc1ccc(C(=O)O)cc1)C(=O)O)C(=O)O)C(=O)O)C(=O)O)C(C)C [Example 8, N^ε26-[(2S)-2-amino-6-[[(4S)-4-carboxy-4-[[(4S)-4-carboxy-4-[[(4S)-4-carboxy-4-[10-(4-carboxyphenoxy)decanoylamino]butanoyl]amino]butanoyl]amino]butanoyl]amino]hexanoyl], N^ε37-[(2S)-2-amino-6-[[(4S)-4-carboxy-4-[[(4S)-4-carboxy-4-[[(4S)-4-carboxy-4-[10-(4-carboxyphenoxy)decanoylamino]butanoyl]amino]butanoyl]amino]butanoyl]amino]hexanoyl]-[Aib^8,Arg^34,Lys^37]-GLP-1-(7-37)-peptide]?
Answer: EC50 (human GLP-1 receptor [1]; [3]): 0.0026 nM; EC50 (human GLP-1 receptor [1]; [4]): 0.045 nM; IC50 (human GLP-1 receptor [2]; [5]): 269 nM; IC50 (human GLP-1 receptor [2]; [6]): 0.68 nM

Question: With CC[C@H](C)[C@H](NC(=O)[C@H](Cc1ccccc1)NC(=O)[C@H](CCC(=O)O)NC(=O)[C@H](CCCCNC(=O)[C@@H](N)CCCCNC(=O)[C@@H](N)CCCCNC(=O)[C@H](CO)NC(=O)[C@H](CO)NC(=O)CC[C@H](NC(=O)CCCCCCCCCCOc1ccc(C(=O)O)cc1)C(=O)O)NC(=O)[C@H](C)NC(=O)[C@H](C)NC(=O)[C@H](CCC(N)=O)NC(=O)CNC(=O)[C@H](CCC(=O)O)NC(=O)[C@H](CC(C)C)NC(=O)[C@H](Cc1ccc(O)cc1)NC(=O)[C@H](CO)NC(=O)[C@H](CO)NC(=O)[C@@H](NC(=O)[C@H](CC(=O)O)NC(=O)[C@H](CO)NC(=O)[C@@H](NC(=O)[C@H](Cc1ccccc1)NC(=O)[C@@H](NC(=O)CNC(=O)[C@H](CCC(=O)O)NC(=O)C(C)(C)NC(=O)[C@@H](N)Cc1c[nH]cn1)[C@@H](C)O)[C@@H](C)O)C(C)C)C(=O)N[C@@H](C)C(=O)N[C@@H](Cc1c[nH]c2ccccc12)C(=O)N[C@@H](CC(C)C)C(=O)N[C@H](C(=O)N[C@@H](CCCNC(=N)N)C(=O)NCC(=O)N[C@@H](CCCNC(=N)N)C(=O)N[C@@H](CCCCNC(=O)[C@@H](N)CCCCNC(=O)[C@@H](N)CCCCNC(=O)[C@H](CO)NC(=O)[C@H](CO)NC(=O)CC[C@H](NC(=O)CCCCCCCCCCOc1ccc(C(=O)O)cc1)C(=O)O)C(=O)O)C(C)C [Example 35] as the compound, how does the EC50 (human GLP-1 receptor [1]; [3]) read?
Answer: 0.0055 nM

Question: What about the IC50 (human GLP-1 receptor [2]; [5]) of the same compound?
Answer: 36 nM

Question: And the IC50 (human GLP-1 receptor [2]; [6])?
Answer: 0.08 nM

Question: What does the source list for CC[C@H](C)[C@H](NC(=O)[C@H](Cc1ccccc1)NC(=O)[C@H](CCC(=O)O)NC(=O)[C@H](CCCCNC(=O)[C@@H](N)CCCCNC(=O)CC[C@H](NC(=O)CC[C@H](NC(=O)CCCCCCCCCCOc1ccc(C(=O)O)cc1)C(=O)O)C(=O)O)NC(=O)[C@H](C)NC(=O)[C@H](C)NC(=O)[C@H](CCC(N)=O)NC(=O)CNC(=O)[C@H](CCC(=O)O)NC(=O)[C@H](CC(C)C)NC(=O)[C@H](Cc1ccc(O)cc1)NC(=O)[C@H](CO)NC(=O)[C@H](CO)NC(=O)[C@@H](NC(=O)[C@H](CC(=O)O)NC(=O)[C@H](CO)NC(=O)[C@@H](NC(=O)[C@H](Cc1ccccc1)NC(=O)[C@@H](NC(=O)CNC(=O)[C@H](CCC(=O)O)NC(=O)C(C)(C)NC(=O)[C@@H](N)Cc1c[nH]cn1)[C@@H](C)O)[C@@H](C)O)C(C)C)C(=O)N[C@@H](C)C(=O)N[C@@H](Cc1c[nH]c2ccccc12)C(=O)N[C@@H](CC(C)C)C(=O)N[C@H](C(=O)N[C@@H](CCCNC(=N)N)C(=O)NCC(=O)N[C@@H](CCCNC(=N)N)C(=O)N[C@@H](CCCCNC(=O)[C@@H](N)CCCCNC(=O)CC[C@H](NC(=O)CC[C@H](NC(=O)CCCCCCCCCCOc1ccc(C(=O)O)cc1)C(=O)O)C(=O)O)C(=O)O)C(C)C [Example 40, N^ε26-[(2S)-2-amino-6-[[(4S)-4-carboxy-4-[[(4S)-4-carboxy-4-[11-(4-carboxyphenoxy)undecanoylamino]butanoyl]amino]butanoyl]amino]hexanoyl], N^ε37-[(2S)-2-amino-6-[[(4S)-4-carboxy-4-[[(4S)-4-carboxy-4-[11-(4-carboxyphenoxy)undecanoylamino]butanoyl]amino]butanoyl]amino]hexanoyl]-[Aib^8,Arg^34,Lys^37]-GLP-1-(7-37)-peptide]?
Answer: EC50 (human GLP-1 receptor [1]; [3]): 0.0026 nM; IC50 (human GLP-1 receptor [2]; [5]): 195 nM; IC50 (human GLP-1 receptor [2]; [6]): 0.03 nM
